Assays:
Akt = test: Western blot of Akt phosphorylation in MDA-MB-231 cells; format: cell-based
Method: (§1) FIG. 8: A study of the role of TrkA and EphA2 in the activation of proteins Akt and Src. Cells MDA-MB-231 were respectively treated with a TrkA inhibitor (K252a), an anti-EphA2 siRNA (siEphA2), an inhibitor of PI3-K (LY294002) and an inhibitor of Src (SKI-1).
(§2) A and D. Cells MDA-MB-231 HA-TrkA were treated with proNGF N.C. […] The phosphorylation of Akt and Src was determined by using phospho-specific antibodies. The equal charge was verified using Akt and Src antibodies.
(§3) C and F. The phosphorylation of Akt and Src was determined in the total lysates coming from cells MDA-MB-231 transfected with siEphA2 and treated for 30 minutes with proNGF N.C. (C) or NGF (F).
(§4) After treatment, the cells were lysed (lysis buffer: 40 mM HEPES pH 7.5; 1 mM EDTA pH 8.0; 120 mM NaCl; 10 mM NaPPi; 50 mM NaF; 1.5 mM Na3VO4; 1% Triton X 100; 0.1% SDS; 1 mM PMSF; 10% glycerol and 1/100 th of protease inhibitor cocktail (Sigma) (20 min; 4° C.)). The lysates were recovered and clarified by centrifugation (12,000 g; 10 min; 4° C.). The supernatant was then stored at −80° C. until use. The protein extracts were diluted to 2 μg·μL−1 in a Laemmli 1× buffer (7 min; 100° C.) then deposited and separated on SDS-PAGE (concentration gel 3.6% acrylamide and separation gel 7.5% to 10% acrylamide (thickness 1 mm); 180 V; 10 min then 200 V constant; until output of the migration front). The proteins separated by SDS-PAGE were transferred according to the semi-dry transfer method (buffer: 48 mM Tris base, 39 mM glycine, 1.64 mM SDS, 20% methanol (v/v); 14 V; 15 min per gel) or liquid (buffer: 25 mM Tris base and 192 mM glycine; 15% methanol (v/v); 100 V; 30 min) on nitrocellulose membranes (0.45 μm; Whatman; Germany) or PVDF (0.45 μm; Immobilon P; Millipore; France). The PVDF membrane was “activated” beforehand (methanol; 10 min; 20° C.). The membranes were then saturated (TBS-T; 5% BSA; 1 h; 20° C.) then incubated (16 h; 4° C.) with the chosen primary antibody. […] The membranes were placed in an image analyser (LAS 4000; Fuji) connected to a computer which allowed image generation (software Image Reader LAS 4000).
(§5) The antibody against EphA2 was sc-924 (Santa Cruz), the antibody against sortilin was BD Bioscience 612101, the antibody against TrkA was sc 14024 (Santa Cruz), the antibody against HA was MMS-101R (Covance), the antibody against Akt was Cell Signaling 4691, the antibody against phospho-Akt (Ser 473) was Cell Signaling 9271, the antibody against Src was Cell Signaling 2109 (WB), the antibody against PhosphoSrc (Tyr416) was Cell Signaling 2105 and the antibody against actin was Sigma A2066.
(§6) Proteins Akt and Src were both involved in the pro-invasive effect of proNGF. In order to identify the role of TrkA and EphA2 in the activation of proteins Akt and Src, cells MDA-MB-231 were treated respectively with a TrkA inhibitor (K252a), an anti-EphA2 siRNA (siEphA2) the sequence of which is presented in table 1, a PI3-K inhibitor (LY294002) (the activation of Akt in effect underlies that of PI3-K) and an inhibitor of Src (SKI-1).

Src = test: Western blot of Src phosphorylation in MDA-MB-231 cells; format: cell-based
Method: as §1, §2, §3, §4, §5, §6

[1] = system: MDA-MB-231 HA-TrkA tumours; test: Xenograft of MDA-MB-231 HA-TrkA in SCID mice, survival (Experiment 2); format: in vivo; settings: 5 injections (D14-D26), siRNA 7.5 microg/mouse close to the tumour; control 40 days; log-rank P=0.0022
Method: FIG. 9: A study of the inhibition of TrkA and EphA2 on tumour development in vivo. […] The experiments were stopped 31 days after the first injection of the treatment for ethical considerations after the death of the control mice. A) The tumour volumes were evaluated by measuring the length (;) and the width (w) and then calculating the volume using the formula π/6×l×W×(l+w)/2; the Mann and Whitney test was carried out between the control group and CEP-701 (a), between the control groups and siEphA2 (b), between the control groups and CEP-701+siEphA2 (c), and between the groups siEphA2 and CEP-701+siEphA2 (d)*, P<0.05; **, P<0.01; ns: not significant. B) Study of the inhibition of the expression of receptors by siRNA on the overall survival of SCID mice. The tumours were developed without any intervention for 14 days and were then subjected to 5 injections (D14, DI7, D20, D23, D26) of SiTrkA (7.5 microg/mouse), siEphA2 (7.5 microg/mouse), siTrkA (7.5 microg/mouse) and siEphA2 (7.5 microg/mouse). […] The tumour volumes were evaluated by measuring the length (l) and width (w) and then calculating the volume using the formula π/6×l×W×(l+w)/2. […] Significance was measured using the log-rank test (P=0.0022). […]
Experiment 2: The mice used were six-week old SCID females. […] The tumour volume was measured according to the following formula: π/6×length×width×(width+length)/2. […]

[2] = NGF 30 min, 10 nM K252a or siEphA2

## NGF: Nerve Growth Factor; recombinant human β NGF supplied by Scil Proteins
Akt; MDA-MB-231 HA-TrkA, 30 min
  activation (phosphorylation) of Akt by the ligand: increased
Src; MDA-MB-231 HA-TrkA, 30 min
  activation (phosphorylation) of Src by the ligand: increased

## siEphA2: siRNA against EphA2, GCAAGGAAGUGGUACUGCUGGACUU (SEQ ID NO: 1) (listed as RNA, chemistry not given here)
Akt; [2]
  effect on Akt phosphorylation induced by NGF: reduces only the base activation of phospho-Akt and phospho-Src but not the phosphorylation induced by the NGF
[1]
  median survival: 49 days
Src; [2]
  effect on Src phosphorylation induced by NGF: reduces only the base activation of phospho-Akt and phospho-Src but not the phosphorylation induced by the NGF
Src; proNGF N.C. 30 min, 10 nM K252a, 15 μM LY294002, 50 nM SKI-1 or siEphA2
  effect on Src activation induced by proNGF: reduced the phosphorylation of Src

Source: patent US20170258871A1, “COMBINED USE OF A TRKA INHIBITOR AND AN EPHA2 INHIBITOR FOR USING IN THE TREATMENT OF SOLID CANCERS, AND METHOD FOR THE PROGNOSIS OF SURVIVAL OF A PATIENT WHO HAS A SOLID CANCER” (UNIVERSITE DES SCIENCES ET TECHNOLOGIES DE LILLE, priority 2014, published 2017)
